Where two headings read alike, the source gives them in different places. One block for each molecule: values may come before it.
Assays:
[1] = test system: isolated mouse liver mitochondria; conditions: cited from earlier work
hLiMTs [2] = conditions: cited from earlier work
PHH [3] = conditions: In vitro Assay; ref Albrecht 2019; cited from earlier work
HepaRG spheroids = experiment: Combined HCI (HCS) and cellular ATP 3D assay in HepaRG spheroids
HepG2 = test system: HepG2; parameters: method as in Albrecht 2019; conditions: In vitro Assay; ref Albrecht 2019; cited from earlier work
[4] = test system: HepG2 C3A spheroid, BSEP, Glu/Gal in HepG2 cells, bioactivation; conditions: cited from earlier work
[5] = plasma free fraction; cited from earlier work
PHH [6] = conditions: cited from earlier work
hLiMTs [7] = experiment: Combined HCI (HCS) and cellular ATP 3D assay in hLiMTs; conditions: for AC50 / minimal effective concentration: Homo sapiens
[8] = test system: THLE or HepG2 cells, isolated mitochondria, BSEP; conditions: cited from earlier work
[9] = read-out: Human plasma Cmax; total plasma Cmax.tot, median of 9 literature references; cited from earlier work
HepG2 cells [10] = conditions: cited from earlier work
HepG2 cells [11] = conditions: cited from earlier work; remark: listed apart in the source
[12] = cited from earlier work
HepG2 cells [13] = conditions: Structural based (HCI), HepG2; ref O'Brien et al. 2006; cited from earlier work
[14] = Plasma free fraction (fu) and unbound Cmax (Cmax,u); type: in vitro ADME, human; conditions: unbound plasma Cmax
RMPCC's = conditions: cited from earlier work
hu-MPCC = conditions: cited from earlier work
[15] = In vitro Assay, ref Porceddu 2012
[16] = In vitro Assay, ref Proctor 2017
[17] = Microtissue model structural based (HCI), combined HCS and ATP, MEC < 25 × Cmax.tot cut-off
[18] = Modeled in vitro assays (cytotoxicity, mitochondrial dysfunction, BSEP), ref Aleo et al. 2019
[19] = In vitro Assay, ref Persson 2013

- HepaRG <25x Avg Cmax ATP (HepaRG spheroids; HepaRG, ATP endpoint, cut-off <25x Avg Cmax): +ve
- HepaRG <100x Avg Cmaxu ATP (HepaRG spheroids; HepaRG, ATP endpoint, cut-off <100x Avg Cmaxu): +ve (<100x Avg Cmaxu)
- HepaRG <25x Avg Cmax HCS (HepaRG spheroids; HepaRG, HCS endpoints, cut-off <25x Avg Cmax): +ve
- HepaRG <100x Avg Cmaxu HCS (HepaRG spheroids; HepaRG, HCS endpoints, cut-off <100x Avg Cmaxu): +ve (<100x Avg Cmaxu)
- HepaRG <25x Avg Cmax All (HepaRG spheroids; HepaRG, all endpoints (ATP and HCS), cut-off <25x Avg Cmax): +ve
- HepaRG Cmax max All (HepaRG spheroids; HepaRG, all endpoints, Cmax max used): +ve
- HepaRG Cmax min All (HepaRG spheroids; HepaRG, all endpoints, Cmax min used): +ve
- HepaRG <10 uM All (HepaRG spheroids; HepaRG, all endpoints, cut-off <10 uM): -ve
- HepaRG <100x Avg Cmaxu All (HepaRG spheroids; HepaRG, all endpoints, cut-off <100x Avg Cmaxu): +ve (<100x Avg Cmaxu)
- hLiMTs <25x Avg Cmax ATP (hLiMTs [7]; hLiMTs, ATP endpoint, cut-off <25x Avg Cmax): +ve
- hLiMTs <100x Avg Cmaxu ATP (hLiMTs [7]; hLiMTs, ATP endpoint, cut-off <100x Avg Cmaxu): +ve (<100x Avg Cmaxu)
- hLiMTs <25x Avg Cmax HCS (hLiMTs [7]; hLiMTs, HCS endpoints, cut-off <25x Avg Cmax): +ve
- hLiMTs <100x Avg Cmaxu HCS (hLiMTs [7]; hLiMTs, HCS endpoints, cut-off <100x Avg Cmaxu): +ve (<100x Avg Cmaxu)
- hLiMTs <25x Avg Cmax All (hLiMTs [7]; hLiMTs, all endpoints (ATP and HCS), cut-off <25x Avg Cmax): +ve
- hLiMTs Cmax max All (hLiMTs [7]; hLiMTs, all endpoints, Cmax max used): +ve
- hLiMTs Cmax min All (hLiMTs [7]; hLiMTs, all endpoints, Cmax min used): +ve
- hLiMTs <10 uM All (hLiMTs [7]; hLiMTs, all endpoints, cut-off <10 uM): -ve
- hLiMTs <100x Avg Cmaxu All (hLiMTs [7]; hLiMTs, all endpoints, cut-off <100x Avg Cmaxu): +ve (<100x Avg Cmaxu)
- Human plasma Cmax,u [14]: 538.224 µM
Structure (SMILES): CC(=O)Oc1ccccc1C(=O)O [acetylsalicylic acid]
- in vitro data EC2<=1x Cmax [1, 15]: +VE
- in vitro data EC20<=2uM [1, 15]: -VE
- hLiMTs ATP <100uM (hLiMTs [2]; [16]): -VE
- hLiMTs/100xCmax, Proctor (2017) (hLiMTs [2]; hLiMTs, ATP, IC50 < 100 × Cmax.tot, ref Proctor et al. 2017): -VE
- hLiMTs/100uM, Proctor (2017) (hLiMTs [2]; hLiMTs, ATP, IC50 threshold 100 µM, ref Proctor et al. 2017): -VE
- Cytotoxicity PHH 48 hrs (PHH [3]): +VE
- AC50 (HepaRG spheroids; Homo sapiens, HepaRG, read-out: ATP endpoint AC50): 1.63 mM
- minimal effective concentration (HepaRG spheroids; Homo sapiens, HepaRG, read-out: ATP endpoint MEC): 659 µM
- minimal effective concentration (HepaRG spheroids; Homo sapiens, HepaRG, read-out: HCS endpoint MEC): 1340 µM
- DILI prediction HepaRG spheroids (HCS-MEC) (HepaRG spheroids; [17]): +VE (MEC < 25 × Cmax.tot cut-off)
- Cytotoxicity HepG2 48 hrs (HepG2): +VE
- Bayesian Machine Learning DILI prediction, Williams (2019) ([4]; Bayesian modeling, ref Williams et al. 2019): -VE
- Bayesian Machine Learning ([4]; In vitro Assay, ref Williams 2019): -VE
- fu [5]: 0.390
- PHH/100xCmax, Proctor (2017) (PHH [6]; 2D PHH, ATP, IC50 < 100 × Cmax.tot, ref Proctor et al. 2017): -VE
- PHH/100uM, Proctor (2017) (PHH [6]; 2D PHH, ATP, IC50 threshold 100 µM, ref Proctor et al. 2017): -VE
- PHH ATP <100uM (PHH [6]; [16]): -VE
- AC50 (hLiMTs [7]; read-out: ATP endpoint AC50): 3.25 mM
- minimal effective concentration (hLiMTs [7]; read-out: ATP endpoint MEC): 2270 µM
- AC50 (hLiMTs [7]; read-out: HCS endpoint AC50): 4.69 mM
- minimal effective concentration (hLiMTs [7]; read-out: HCS endpoint MEC): 1930 µM
- DILI prediction hLiMTs (HCS-MEC) (hLiMTs [7]; [17]): +VE (MEC < 25 × Cmax.tot cut-off)
- Partition Hybrid HRM Score ([8]; In vitro Assay, ref Aleo 2019): -VE
- Ro2 Hybrid HRM Score ([8]; In vitro Assay, ref Aleo 2019): -VE
- Partition Hybrid HRM Score ≥4, Aleo (2019) [8, 18]: -VE
- Partition Hybrid HRM Score ≥8, Aleo (2019) [8, 18]: -VE
- Rule of Two hybrid HRM Score ≥3, Aleo (2019) [8, 18]: -VE
- Rule of Two hybrid HRM Score ≥8, Aleo (2019) [8, 18]: -VE
- Cmax [9]: 1380 µM
- Structural based (HCI) (HepG2 cells [10]; In vitro Assay, ref Tolosa 2012): +VE
- DILI in vitro assay prediction, Tolosa (2012) (HepG2 cells [10]; Structural based (HCI), HepG2, ref Tolosa et al. 2012): +VE
- Cluser analysis (HepG2 cells [11]; [19]): -VE
- Structural based (HCI) (HepG2 cells [11]; [19]): -VE
- DILI in vitro assay prediction, Persson (2013) (HepG2 cells [11]; Structural based (HCI), HepG2, ref Persson et al. 2013): -VE
- Assigned DILI category ([12]; Chen et al. 2016 or literature alignment, ref Chen et al. 2016): 3
- In vivo DILI ([12]; […]): -VE
- In vivo DILI ([12]; ref Albrecht 2019): +VE
- In vivo DILI ([12]; ref Aleo 2019): +VE
- In vivo DILI ([12]; ref Persson 2013): +VE
- In vivo DILI ([12]; ref Porceddu 2012): +VE
- In vivo DILI ([12]; ref Proctor 2017): +VE
- In vivo DILI ([12]; ref Tolosa 2012): +VE
- In vivo DILI ([12]; ref Williams 2019): +VE
- DILI in vitro assay prediction, O'Brien (2006) (HepG2 cells [13]): +VE (lowest HCI endpoint IC50 (or in the absence of dose–response < 100 µM) < 30 × total human plasma exposure levels (Cmax.tot))

Structure (SMILES): O=C(O)c1cn(C2CC2)c2cc(N3CCNCC3)c(F)cc2c1=O [ciprofloxacin]
- in vitro data EC20<=2uM [1]: -VE
- RMPCC's (RMPCC's): +VE
- HMPCC's (hu-MPCC): +VE

— publication PMC7395068, “The evolution of strategies to minimise the risk of human drug-induced liver injury (DILI) in drug discovery and development” (Archives of Toxicology, 2020)
